IC50 data for 17 compounds are collected here from US12570655B2, “Cysteine covalent modifiers of AKT1 and uses thereof” (Terremoto Biosciences, Inc., priority 2023, dated 2026).

Molecules are shown by their SMILES. pIC50: −log10 of the molar value. Like-named read-outs stand apart in the source and are kept apart here.

Common to all, as to assay type: cell-based
Assay [1] has as its target T1, AKT1 WT (Homo sapiens, UniProt P31749).
T1 construct: expressed in transfected cells; host or cells: HEK293
As to the kind of experiment: Live cell AKT1 WT target engagement by NanoBRET competitive probe displacement. As to conditions: HEK293 cells transfected with kinase-NanoLuciferase fusion, 2 h at 37° C. In outline:
(§1)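 IC50 fitted (Hill, log inhibitor vs response) to BRET signal, E600/E460 ratio, measured with extracellular NanoLuc inhibitor present. Intact transfected HEK293 cells bearing NanoLuc-tagged kinase were co-incubated 2 h, 37 °C, with compound dilution series and ~EC50 ATP-competitive fluorescent tracer.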
(In general: In BRET a luciferase serves as donor, and the signal depends on an acceptor being close.)

Assay [2] has as its target T2, AKT1 E17K (Homo sapiens, UniProt P31749, E17K).
T2 construct: expressed in transfected cells; host or cells: HEK293
As to the kind of experiment: Live cell AKT1 E17K target engagement by NanoBRET competitive probe displacement. As to conditions: HEK293 cells transfected with kinase-NanoLuciferase fusion, 2 h at 37° C. In outline: as §1

Assay [3] concerns LAPC4 prostate cancer cells. As to the kind of experiment: Antiproliferative effects in LAPC4 cells (CellTiter Glo). The note with it: LAPC4 cells (AKT1 E17K allele), read-out: LAPC4 proliferation IC50. The method in brief:
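Growth inhibition was measured by CellTiter Glo ATP luminescence after 72 h compound exposure of 1,000 seeded cells/well. The cells were AKT1 E17K-expressing LAPC4 prostate cancer cells maintained in IMDM plus 12% FBS. IC50 values came from Hill-equation fits.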

Assay [4] has as its target T3, AKT2 (Homo sapiens, UniProt P31751).
T3 construct: expressed in transfected cells; host or cells: HEK293
As to the kind of experiment: Live cell AKT2 target engagement by NanoBRET competitive probe displacement. As to conditions: HEK293 cells transfected with kinase-NanoLuciferase fusion, 2 h at 37° C. The method in brief:
as §1

T2 sequence (P31749 whole entry E17K): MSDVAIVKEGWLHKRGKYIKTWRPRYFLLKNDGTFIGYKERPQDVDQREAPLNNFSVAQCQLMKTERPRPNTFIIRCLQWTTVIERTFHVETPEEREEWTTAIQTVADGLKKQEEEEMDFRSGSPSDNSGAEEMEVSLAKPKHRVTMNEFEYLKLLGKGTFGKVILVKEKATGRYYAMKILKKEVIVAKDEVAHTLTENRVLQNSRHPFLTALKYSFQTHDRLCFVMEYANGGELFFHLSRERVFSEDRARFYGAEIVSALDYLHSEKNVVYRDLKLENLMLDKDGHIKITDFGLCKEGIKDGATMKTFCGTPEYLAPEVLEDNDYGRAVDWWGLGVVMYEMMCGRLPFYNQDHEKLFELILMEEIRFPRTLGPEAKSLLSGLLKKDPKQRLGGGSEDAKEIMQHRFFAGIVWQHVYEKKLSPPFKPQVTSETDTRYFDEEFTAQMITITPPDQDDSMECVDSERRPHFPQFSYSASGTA
T1 sequence (P31749 whole entry): as the sequence (P31749 whole entry E17K) above, with K17E counted along it
T3 sequence (P31751 whole entry): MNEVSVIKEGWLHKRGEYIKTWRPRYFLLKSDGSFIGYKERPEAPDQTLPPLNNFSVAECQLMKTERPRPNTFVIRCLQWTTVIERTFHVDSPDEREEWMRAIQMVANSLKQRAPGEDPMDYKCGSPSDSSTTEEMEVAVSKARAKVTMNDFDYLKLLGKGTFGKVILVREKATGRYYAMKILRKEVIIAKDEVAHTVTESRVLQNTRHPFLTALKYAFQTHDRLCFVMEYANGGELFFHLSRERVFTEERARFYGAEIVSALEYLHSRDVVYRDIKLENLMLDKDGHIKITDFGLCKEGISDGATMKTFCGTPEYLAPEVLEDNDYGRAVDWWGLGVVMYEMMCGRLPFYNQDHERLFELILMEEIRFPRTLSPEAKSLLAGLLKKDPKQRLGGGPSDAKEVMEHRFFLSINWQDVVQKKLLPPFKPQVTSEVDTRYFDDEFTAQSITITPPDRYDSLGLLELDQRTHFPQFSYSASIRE

Turning to `C=CC(=O)N1CCC(N[C@H]2CCc3cc(-n4c(-c5ccccc5F)nc5ccc(-n6cccn6)nc54)ccc32)CC1` [Example 241, 1-(4-{[(1S)-5-[2-(2-fluorophenyl)-5-(pyrazol-1-yl)imidazo[4,5-b]pyridin-3-yl]-2,3-dihydro-1H-inden-1-yl]amino}piperidin-1-yl)prop-2-en-1-one], the pIC50 in assay [1] was 6.69; in assay [2] it was 8.25; in assay [3] (Homo sapiens, LAPC4, 72 h) it was 7.11; in assay [4], 7.73.
The like results for `C=CC(=O)N1CCC(N(C)[C@H]2CCc3cc(-n4c(-c5cccnc5N)nc5ccc(-n6cccn6)nc54)ccc32)CC1` [Example 67, (S)-1-(4-((5-(2-(2-aminopyridin-3-yl)-5-(1H-pyrazol-1-yl)-3H-imidazo[4,5-b]pyridin-3-yl)-2,3-dihydro-1H-inden-1-yl)(methyl)amino)piperidin-1-yl)prop-2-en-1-one] were, in that order, 7.66, 7.06, 6.54 and 6.97.
For `C=CC(=O)N1CCC(N[C@H]2CCc3cc(-n4c(-c5cccnc5N)nc5ccc(-c6nc(C)co6)nc54)ccc32)CC1` [Example 253, 1-(4-{[(1S)-5-[2-(2-aminopyridin-3-yl)-5-(4-methyl-1,3-oxazol-2-yl)imidazo[4,5-b]pyridin-3-yl]-2,3-dihydro-1H-inden-1-yl]amino}piperidin-1-yl)prop-2-en-1-one], in that order: 6.50, 7.84, 6.90 and 7.23.
As to `C=CC(=O)N1CCC(N[C@H]2CC(F)c3cc(-n4c(-c5cccnc5N)nc5ccc(-n6cccn6)nc54)ccc32)CC1` (single isomer, unassigned) [Example 234, 1-(4-(((1S,3*)-5-(2-(2-aminopyridin-3-yl)-5-(1H-pyrazol-1-yl)-3H-imidazo[4,5-b]pyridin-3-yl)-3-fluoro-2,3-dihydro-1H-inden-1-yl)amino)piperidin-1-yl)prop-2-en-1-one], the pIC50 is 6.50 in assay [1], 7.92 in assay [2], 6.48 in assay [3] (72 h) and 7.15 in assay [4].
The like results for `C=CC(=O)N1CCC(N[C@@H]2c3ccc(-n4c(-c5cccnc5N)nc5ccc(-n6cccn6)nc54)cc3CC2F)C(C)C1` (single isomer, unassigned) [Example 290, 1-[(3*,4*)-4-{[(1R,2*)-5-[2-(2-aminopyridin-3-yl)-5-(pyrazol-1-yl)imidazo[4,5-b]pyridin-3-yl]-2-fluoro-2,3-dihydro-1H-inden-1-yl]amino}-3-methylpiperidin-1-yl]prop-2-en-1-one] were, in that order, 6.18, 7.71, 6.34 and 6.91.
Take `C=CC(=O)N1CCC(N[C@@H]2c3ccc(-n4c(-c5cccnc5N)nc5ccc(-n6cccn6)nc54)cc3C[C@H]2F)CC1` [Example 75, 1-(4-(((1R,2R)-5-(2-(2-aminopyridin-3-yl)-5-(1H-pyrazol-1-yl)-3H-imidazo[4,5-b]pyridin-3-yl)-2-fluoro-2,3-dihydro-1H-inden-1-yl)amino)piperidin-1-yl)prop-2-en-1-one]: the pIC50 in assay [1] was 7.70; in assay [2], 7.44; in assay [3] (Homo sapiens, LAPC4, 72 h) it was 6.54; in assay [4], 6.29.
For `C=CC(=O)NCCc1ccccc1C(=O)N[C@H]1CCc2cc(-n3c(-c4cccnc4N)nc4ccc(-n5cccn5)nc43)ccc21` [Example 268, (S)-2-(2-acrylamidoethyl)-N-(5-(2-(2-aminopyridin-3-yl)-5-(1H-pyrazol-1-yl)-3H-imidazo[4,5-b]pyridin-3-yl)-2,3-dihydro-1H-inden-1-yl)benzamide], in that order: 6.53, 7.83, 6.45 and 7.25.
The like results for `C=CC(=O)N1CCC(N[C@H]2CCc3cc(-n4c(-c5cccnc5N)nc5ccc(-c6nccs6)nc54)ccc32)CC1` [Example 159, 1-(4-{[(1S)-5-[2-(2-aminopyridin-3-yl)-5-(1,3-thiazol-2-yl)imidazo[4,5-b]pyridin-3-yl]-2,3-dihydro-1H-inden-1-yl]amino}piperidin-1-yl)prop-2-en-1-one] were, in that order, 7.70, 7.25, 7.15 and 6.84.
The like results for `C=CC(=O)N1CCC(N[C@H]2CCc3cc(-n4c(-c5cccnc5N)nc5ccc(-c6ncc(C)o6)nc54)ccc32)CC1` [Example 255, 1-(4-{[(1S)-5-[2-(2-aminopyridin-3-yl)-5-(5-methyl-1,3-oxazol-2-yl)imidazo[4,5-b]pyridin-3-yl]-2,3-dihydro-1H-inden-1-yl]amino}piperidin-1-yl)prop-2-en-1-one] were, in that order, 6.26, 7.48, 6.67 and 6.75.
For the compound `C=C1CCN(c2ccccc2C(=O)N[C@H]2CCc3cc(-n4c(-c5cccnc5N)nc5ccc(-n6cccn6)nc54)ccc32)C1=O` [Example 42, (S)-N-(5-(2-(2-aminopyridin-3-yl)-5-(1H-pyrazol-1-yl)-3H-imidazo[4,5-b]pyridin-3-yl)-2,3-dihydro-1H-inden-1-yl)-2-(3-methylene-2-oxopyrrolidin-1-yl)benzamide], the pIC50 in assay [1] was 6.54; in assay [2], 6.05; in assay [3] (Homo sapiens, LAPC4, 72 h), 5.44; in assay [4], 6.60.
Take `C=CC(=O)N1CCC(N[C@@H]2c3ccc(-n4c(-c5cccnc5N)nc5ccc(-n6cccn6)nc54)cc3CC2F)C[C@H]1C` (single isomer, unassigned) [Example 143, 1-((2R,4*)-4-(((1R,2*)-5-(2-(2-aminopyridin-3-yl)-5-(1H-pyrazol-1-yl)-3H-imidazo[4,5-b]pyridin-3-yl)-2-fluoro-2,3-dihydro-1H-inden-1-yl)amino)-2-methylpiperidin-1-yl)prop-2-en-1-one]: the pIC50 in assay [1] is 7.22; in assay [2], 6.45; in assay [3] (Homo sapiens, LAPC4, 72 h), 6.30; in assay [4], 5.90.
For `C=CC(=O)N1CCC(N[C@H]2CCc3cc(-n4c(-c5cccnc5N)nc5ccc(-n6ccc(C7(C#N)CC7)n6)nc54)ccc32)CC1` [Example 322, (S)-1-(1-(3-(1-((1-acryloylpiperidin-4-yl)amino)-2,3-dihydro-1H-inden-5-yl)-2-(2-aminopyridin-3-yl)-3H-imidazo[4,5-b]pyridin-5-yl)-1H-pyrazol-3-yl)cyclopropane-1-carbonitrile], in that order: 6.61, 8.26, 6.86 and 7.38.
For the compound `C=CC(=O)N1CCC(N[C@@H]2c3ccc(-n4c(-c5ccccc5F)nc5ccc(-n6cccn6)nc54)cc3CC2F)C[C@H]1C` (single isomer, unassigned) [Example 317, 1-((2R,4*)-4-(((1R,2*)-2-fluoro-5-(2-(2-fluorophenyl)-5-(1H-pyrazol-1-yl)-3H-imidazo[4,5-b]pyridin-3-yl)-2,3-dihydro-1H-inden-1-yl)amino)-2-methylpiperidin-1-yl)prop-2-en-1-one], the pIC50 in assay [1] was 5.59; in assay [2] it was 7.69; in assay [3] (72 h), 6.33; in assay [4] it was 7.16.
In the case of `C=CC(=O)N(C)CC(=O)N[C@H]1CCc2cc(-n3c(-c4cccnc4N)nc4ccc(-n5cccn5)nc43)ccc21` [Example 52, (S)-N-(2-((5-(2-(2-aminopyridin-3-yl)-5-(1H-pyrazol-1-yl)-3H-imidazo[4,5-b]pyridin-3-yl)-2,3-dihydro-1H-inden-1-yl)amino)-2-oxoethyl)-N-methylacrylamide], the pIC50 in assay [1] is 6.76; in assay [2] it was 6.02; in assay [3] (Homo sapiens, LAPC4, 72 h), 6.04; in assay [4], 5.46.
For the compound `C=C(OC)C(=O)Nc1ccccc1C(=O)N[C@H]1CCc2cc(-n3c(-c4cccnc4N)nc4ccc(-n5cccn5)nc43)ccc21` [Example 108, (S)-N-(5-(2-(2-aminopyridin-3-yl)-5-(1H-pyrazol-1-yl)-3H-imidazo[4,5-b]pyridin-3-yl)-2,3-dihydro-1H-inden-1-yl)-2-(2-methoxyacrylamido)benzamide], the pIC50 in assay [1] was 7.99; in assay [2], 7.37; in assay [3] (Homo sapiens, LAPC4, 72 h), 7.03; in assay [4], 6.78.
The like results for `C=CC(=O)N1CCC(N[C@H]2CCc3cc(-n4c(-c5cccnc5N)nc5ccc(-n6ccc(C7CCC7)n6)nc54)ccc32)CC1` [Example 283, 1-(4-{[(1S)-5-[2-(2-aminopyridin-3-yl)-5-(3-cyclobutylpyrazol-1-yl)imidazo[4,5-b]pyridin-3-yl]-2,3-dihydro-1H-inden-1-yl]amino}piperidin-1-yl)prop-2-en-1-one] were, in that order, 6.88, 8.04, 6.08 and 7.38.
The like results for `C=CC(=O)N1CCC(N[C@H]2CCc3cc(-n4c(-c5cccnc5)nc5ccc(-n6cccn6)nc54)ccc32)CC1` [Example 153, (S)-1-(4-((5-(5-(1H-pyrazol-1-yl)-2-(pyridin-3-yl)-3H-imidazo[4,5-b]pyridin-3-yl)-2,3-dihydro-1H-inden-1-yl)amino)piperidin-1-yl)prop-2-en-1-one] were, in that order, 7.57, 6.77, 6.44 and 5.97.
